Measured values from patent US6350786B1, “Stable complexes of poorly soluble compounds in ionic polymers” (Hoffmann-La Roche Inc., priority 1998, dated 2002).

Assay: Solubility (aqueous / gastrointestinal fluids)
Format: physicochemical

CCOC(=O)C(Cc1ccc(NC(=O)c2c(Cl)cccc2Cl)cc1)NC(=O)c1c(C)cccc1Cl (stereo not shown) [Compound II]
solubility in gastrointestinal fluids: practically insoluble
